Measurements: patent US20240246942A1, “KINASE INHIBITORS FOR THE TREATMENT OF NEURODEGENERATIVE DISEASES” (priority 2020, published 2024)

Columns and labels:
[1] = target: JNK1 (Homo sapiens, UniProt P45983); assay: JNK1 homogeneous time-resolved fluorescence enzyme inhibition assay; type: biochemical; conditions: mean of ≥2 experiments; read-out: Biochemical inhibition IC50 JNK1
Experimental: A 10-point titration of all compounds was carried out in 3-fold dilutions from 10 μM to 0.5 nM.

[2] = target: p38α (Homo sapiens, UniProt Q16539); assay: p38 enzyme inhibition assay; conditions: mean of ≥2 experiments; read-out: Biochemical inhibition IC50 p38α
[3] = tested on: JNK3-dependent phosphorylation of APP at T668; assay: JNK3 inhibition assay in rat primary neuron cultures (Western blot, anisomycin activated); type: cell-based; conditions: even at a concentration as low as 10 nM; FIGS. 5A-5C
Experimental: Both hippocampal and cortical neurons were isolated from E18 rat embryos and cultured in NbActive 1 medium that contains B27 (Brainbits, LLC) plus penicillin/streptomycin (Life Technologies). At the 7th day in culture, cells were treated with different concentrations of inhibitors diluted in DMSO and 80 ng/ml Anisomycin for 30 min to activate the endogenous JNK3. At the end of incubation time, whole cell lysates were prepared in RIPA buffer containing 50 mM Tris (pH 8.0), 150 mM NaCl, 2 mM EDTA, 1% NP-40, 0.5% deoxycholate supplemented with 10 mM Na pyrophosphate, 1 mM sodium orthovanadate, 25 mM NaF, 10 μg/ml leupeptin, 10 μg/ml aprotinin, 1 mM β-glycerophosphate, and 2 mM PMSF. The lysates were subjected to Western blotting to detect whether inhibitors block JNK3-dependent phosphorylation of APP at T668 and c-jun at S73. Phospho-APP^T668, phosphor-c-jun^S73, APP, and c-jun antibodies were from Cell Signaling Technology.

[4] = target: T1, panel of 374 wild-type kinases (Homo sapiens, UniProt Q86SG6); assay: biochemical; conditions: read-out: % Enzyme Activity (relative to DMSO controls), NEK8; 5 uM
T1 construct: purchased Reaction Biology Corporation

[5] = target: T2, panel of 374 wild-type kinases (Homo sapiens, UniProt Q9H792); assay: biochemical; conditions: read-out: % Enzyme Activity (relative to DMSO controls), kinase PEAK1; 5 uM
T2 construct: purchased Reaction Biology Corporation

[6] = Pharmacokinetics / brain exposure in mice; type: in vivo, C57Bl/6J mice
Experimental: Pharmacokinetics studies were conducted in C57Bl/6J mice. The compound was formulated in a generic formulation at 1 mg/mL (e.g. 10:40:4:46, DMSO:PEG 400: tween 80: PBS, v:v:v:v) or other specified formulations and dosed at 1 mg/kg intravenous into the femoral vein or 1-10 mg/kg by oral gavage, or […]. Blood was obtained at t=5 min, 15 min, 30 min, 1 hr, 2 hr, 4 hr, 6 hr, and 8 hr. Blood was collected by heart puncture into EDTA containing tubes and plasma was generated by standard centrifugation methods. Brains were collected following perfusion with ice-cold saline, and snap frozen in liquid N2. Both plasma and brains were stored at −80° C. until processing. All procedures and handling were according to standard operating procedures approved by […] at Scripps Florida and/or Ohio State University. In order to assess in vivo pharmacokinetic parameters an LC-MS/MS bioanalytical method was developed where 25 TI of plasma was treated with 125 TI of acetonitrile containing an internal standard in a Millipore Multscreen Slovinter 0.45 micron low binding PTFE hydrophilic filter plate (#MSRLN0450) and allowed to shake at room temperature for five minute. The plate was then centrifuged for 5 minutes at 4000 rpm in a tabletop centrifuge and the filtrate was collected in a polypropylene capture plate. The filtrate (10 TI) is injected using an Agilent 1200 HPLC equipped with a Thermo Betasil C18 HPLC column 5 T (50×2.1 mm) #70105-052130. Mobile Phase A was water with 0.1% formic acid. Mobile phase B was acetonitrile with 0.1% formic acid. […] An API Sciex 4000 equipped with a turbo ion spray source was used for all analytical measurement. MRM methods were developed in position ion mode. Peak areas of the analyte ion were measured against the peak areas of the internal standard. Data was fit using WinNonLin using an IV bolus model.

[7] = target: T3, panel of 374 wild-type kinases (Homo sapiens, UniProt P53779); assay: biochemical; conditions: read-out: % Enzyme Activity (relative to DMSO controls), JNK3; 10 uM
T3 construct: purchased Reaction Biology Corporation
T3 sequence (P53779 whole entry): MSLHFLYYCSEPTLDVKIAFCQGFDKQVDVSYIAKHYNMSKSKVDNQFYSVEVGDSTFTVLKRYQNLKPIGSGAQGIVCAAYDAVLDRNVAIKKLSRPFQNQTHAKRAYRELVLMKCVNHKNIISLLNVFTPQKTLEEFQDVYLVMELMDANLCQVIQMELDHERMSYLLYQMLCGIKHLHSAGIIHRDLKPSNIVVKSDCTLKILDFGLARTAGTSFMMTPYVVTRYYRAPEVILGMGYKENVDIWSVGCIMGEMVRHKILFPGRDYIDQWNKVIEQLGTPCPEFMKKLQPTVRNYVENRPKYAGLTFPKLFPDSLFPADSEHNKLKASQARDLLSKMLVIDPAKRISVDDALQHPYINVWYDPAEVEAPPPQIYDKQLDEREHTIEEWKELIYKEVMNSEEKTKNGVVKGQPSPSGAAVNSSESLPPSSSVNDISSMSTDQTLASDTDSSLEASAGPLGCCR

Sequence of p38α (Q16539 whole entry): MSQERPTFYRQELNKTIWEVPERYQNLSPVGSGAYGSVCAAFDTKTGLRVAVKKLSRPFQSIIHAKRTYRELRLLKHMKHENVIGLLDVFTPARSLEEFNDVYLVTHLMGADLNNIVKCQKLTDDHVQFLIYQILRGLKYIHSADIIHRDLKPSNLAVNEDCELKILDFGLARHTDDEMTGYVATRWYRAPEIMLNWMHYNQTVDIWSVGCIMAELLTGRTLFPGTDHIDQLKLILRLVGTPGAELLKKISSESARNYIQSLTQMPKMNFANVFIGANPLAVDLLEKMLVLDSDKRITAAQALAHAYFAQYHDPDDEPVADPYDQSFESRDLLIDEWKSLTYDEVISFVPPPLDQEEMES
T2 sequence (Q9H792 whole entry): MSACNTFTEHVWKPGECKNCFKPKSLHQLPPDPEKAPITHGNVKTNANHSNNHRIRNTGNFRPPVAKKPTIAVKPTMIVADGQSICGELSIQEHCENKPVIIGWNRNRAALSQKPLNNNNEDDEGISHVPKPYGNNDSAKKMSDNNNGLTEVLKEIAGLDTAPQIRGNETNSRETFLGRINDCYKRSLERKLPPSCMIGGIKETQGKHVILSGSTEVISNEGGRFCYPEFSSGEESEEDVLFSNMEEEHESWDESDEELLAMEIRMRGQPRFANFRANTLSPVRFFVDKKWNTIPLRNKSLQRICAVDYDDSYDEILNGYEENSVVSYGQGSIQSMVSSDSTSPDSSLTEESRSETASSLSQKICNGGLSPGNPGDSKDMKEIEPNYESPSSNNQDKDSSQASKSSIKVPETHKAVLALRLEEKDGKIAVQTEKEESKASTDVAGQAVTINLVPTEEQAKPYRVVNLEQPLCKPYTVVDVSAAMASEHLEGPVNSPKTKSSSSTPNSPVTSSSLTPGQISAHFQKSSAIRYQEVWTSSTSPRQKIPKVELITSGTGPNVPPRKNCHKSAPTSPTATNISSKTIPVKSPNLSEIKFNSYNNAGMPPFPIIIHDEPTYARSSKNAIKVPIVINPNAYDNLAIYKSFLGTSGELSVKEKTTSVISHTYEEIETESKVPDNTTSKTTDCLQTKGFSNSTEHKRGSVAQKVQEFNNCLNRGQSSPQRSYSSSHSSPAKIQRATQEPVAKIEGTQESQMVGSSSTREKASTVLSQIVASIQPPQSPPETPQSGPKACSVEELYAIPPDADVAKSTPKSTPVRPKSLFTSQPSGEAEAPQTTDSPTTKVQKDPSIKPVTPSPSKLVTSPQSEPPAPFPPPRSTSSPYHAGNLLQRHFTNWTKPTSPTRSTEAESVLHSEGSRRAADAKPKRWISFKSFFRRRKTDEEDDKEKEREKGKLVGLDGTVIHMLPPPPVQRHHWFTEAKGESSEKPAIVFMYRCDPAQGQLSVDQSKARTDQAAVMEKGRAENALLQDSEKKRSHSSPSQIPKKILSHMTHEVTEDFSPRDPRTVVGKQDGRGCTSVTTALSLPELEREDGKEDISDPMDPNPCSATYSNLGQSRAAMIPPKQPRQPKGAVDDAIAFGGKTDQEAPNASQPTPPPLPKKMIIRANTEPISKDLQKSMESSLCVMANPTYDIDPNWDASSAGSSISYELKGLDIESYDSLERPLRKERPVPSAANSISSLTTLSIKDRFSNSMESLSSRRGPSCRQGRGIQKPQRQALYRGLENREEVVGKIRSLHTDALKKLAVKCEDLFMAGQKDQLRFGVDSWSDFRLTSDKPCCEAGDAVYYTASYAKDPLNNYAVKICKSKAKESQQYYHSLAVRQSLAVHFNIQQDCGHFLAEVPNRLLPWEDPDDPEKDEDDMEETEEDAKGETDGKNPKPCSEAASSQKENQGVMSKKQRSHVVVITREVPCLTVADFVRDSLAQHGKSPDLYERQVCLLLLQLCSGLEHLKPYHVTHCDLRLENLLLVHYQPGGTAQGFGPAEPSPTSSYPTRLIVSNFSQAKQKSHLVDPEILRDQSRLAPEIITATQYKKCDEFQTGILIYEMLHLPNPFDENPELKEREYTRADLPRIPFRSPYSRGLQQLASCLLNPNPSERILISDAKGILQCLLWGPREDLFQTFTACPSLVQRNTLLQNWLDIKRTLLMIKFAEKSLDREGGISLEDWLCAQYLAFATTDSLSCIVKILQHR
Sequence of JNK1 (P45983 whole entry): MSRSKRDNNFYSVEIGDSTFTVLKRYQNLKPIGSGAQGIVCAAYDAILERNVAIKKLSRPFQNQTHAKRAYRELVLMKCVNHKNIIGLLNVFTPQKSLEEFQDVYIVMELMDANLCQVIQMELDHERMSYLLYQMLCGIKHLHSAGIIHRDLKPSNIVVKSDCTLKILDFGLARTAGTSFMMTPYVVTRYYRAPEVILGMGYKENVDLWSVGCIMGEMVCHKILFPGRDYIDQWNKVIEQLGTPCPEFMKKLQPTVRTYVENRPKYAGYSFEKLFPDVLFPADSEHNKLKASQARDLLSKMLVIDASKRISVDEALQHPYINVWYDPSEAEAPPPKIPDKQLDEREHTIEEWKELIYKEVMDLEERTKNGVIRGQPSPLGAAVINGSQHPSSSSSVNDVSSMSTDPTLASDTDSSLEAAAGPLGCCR
T1 sequence (Q86SG6 whole entry): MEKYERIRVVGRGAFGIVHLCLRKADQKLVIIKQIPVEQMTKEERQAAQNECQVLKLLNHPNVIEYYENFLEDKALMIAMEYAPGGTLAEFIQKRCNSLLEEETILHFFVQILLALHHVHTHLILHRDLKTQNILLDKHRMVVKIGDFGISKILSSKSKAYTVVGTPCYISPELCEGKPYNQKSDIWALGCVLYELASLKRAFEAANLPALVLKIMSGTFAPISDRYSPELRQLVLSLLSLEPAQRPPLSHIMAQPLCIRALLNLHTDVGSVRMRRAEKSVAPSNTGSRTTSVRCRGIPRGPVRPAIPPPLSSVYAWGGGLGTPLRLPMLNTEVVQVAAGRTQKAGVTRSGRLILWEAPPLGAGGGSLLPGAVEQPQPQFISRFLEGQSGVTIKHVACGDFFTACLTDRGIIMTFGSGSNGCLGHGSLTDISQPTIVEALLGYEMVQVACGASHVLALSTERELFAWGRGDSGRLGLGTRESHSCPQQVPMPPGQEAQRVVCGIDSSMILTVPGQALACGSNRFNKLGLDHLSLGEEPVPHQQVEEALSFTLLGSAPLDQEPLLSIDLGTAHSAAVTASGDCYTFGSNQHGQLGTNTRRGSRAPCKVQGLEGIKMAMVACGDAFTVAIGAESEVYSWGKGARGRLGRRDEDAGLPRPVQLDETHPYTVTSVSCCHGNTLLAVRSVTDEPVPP

O=C(Nc1cnn(-c2csc(C(=O)NC3COC3)c2)c1)Nc1ccccc1Cl [Compound 17, 4-(4-(3-(2-chlorophenyl)ureido)-1H-pyrazol-1-yl)-N-(oxetan-3-yl)thiophene-2-carboxamide]
IC50 [1]: 5.9 µM | IC50 [2]: > 20 µM | inhibition of phosphorylation of residue T668 of APP [3]: significantly inhibited | remaining activity at 5 µM [4]: 107% | remaining activity at 5 µM [5]: 91.4% | brain penetration capability ([6]; po dosing): brain penetrant | oral bioavailability ([6]; po dosing): has oral bioavailability | Brain Concentration ([6]; po, 10 mg/kg): 1080 nM | Plasma Concentration ([6]; po, 10 mg/kg): 960 nM

Cc1sc(C(=O)NC2COC2)cc1-n1cc(NC(=O)Nc2c(F)cccc2Cl)cn1 [Compound 27, 4-(4-(3-(2-chloro-6-fluorophenyl)ureido)-1H-pyrazol-1-yl)-5-methyl-N-(oxetan-3-yl)thiophene-2-carboxamide]
remaining activity at 10 µM [7]: 10.5%
